From PMC11903733 (Frontiers in Pharmacology, 2025)

Legend:
[1] = system: RPMI-8226 cells; assay: MTS cell proliferation assay; type: cell-based; conditions: Homo sapiens, LSD1-non-sensitive RPMI-8226 cells, 72 h
Method: (§1) The myeloid leukemia cell lines MV-4-11, MOLT-4, MOLM-16, HL-60, and the human B lymphocyte cell line […] were purchased from the American Type Culture Collection (ATCC, Manassas, VA, United States). The myeloid leukemia cell line HAL-01 was obtained from the Deutsche Sammlung von Mikroorganismen und Zellkulturen GmbH (DSMZ, Braunschweig, Germany). All cells were cultured in IMDM or RPMI -1640 medium supplemented with 10% FBS, 100 U/mL penicillin, and 100 μg/mL streptomycin. The cells were maintained in a humidified incubator with an atmosphere of 5% CO2 at 37°C.
(§2) The in vitro anti-proliferative activity of the compounds was determined using the CellTiter 96® AQueous NonRadioactive Cell Proliferation Assay Kit (Promega, Madison, United States) as previously described ([Ji et al., 2017]). In brief, 5–10 × 10^3 cells and 180 μL of medium were first seeded into each well of a 96-well plate. Subsequently, the cells were exposed to either 0.2% Dimethyl sulfoxide (DMSO, Aladdin Reagent, Shanghai, China) or a serial dilution of the compounds, prepared from a 10 mM stock solution in DMSO, with the final concentration of DMSO being 0.2% for 72 h. 20 μL of MTS reagent was added to each well, and the culture was incubated in the dark at 37°C for 4 h. Finally, the optical density (OD) was then recorded at 490 nm and 690 nm using a microplate reader from Molecular Devices. The proliferation inhibition rate was calculated according to the following formula: inhibition ratio = (OD of DMSO treated wells - OD of compound treated wells)/(OD of DMSO treated wells - OD of blank wells) × 100%. The IC50 values of the compounds inhibiting cell proliferation were calculated using GraphPad Prism 10 (GraphPad Software Inc., San Diego, CA).

[2] = system: MV-4-11 cells; assay: MTS cell proliferation assay; type: cell-based; conditions: Homo sapiens, MV4-11, LSD1-addicted MV-4-11 leukemia cells, 72 h
Method: as §1, §2

[3] = target: T1, LSD2 (Homo sapiens, UniProt Q8NB78); assay: Lance Ultra demethylase TR-FRET enzyme inhibition assay, LSD2; type: biochemical; conditions: full-length LSD2 172 nM, Bio-H3K4me2 substrate, 1 h, mean ± SD, n = 3
T1 construct: full-length LSD2; by word order LSD2 from ActiveMotif
T1 sequence (Q8NB78 1-822): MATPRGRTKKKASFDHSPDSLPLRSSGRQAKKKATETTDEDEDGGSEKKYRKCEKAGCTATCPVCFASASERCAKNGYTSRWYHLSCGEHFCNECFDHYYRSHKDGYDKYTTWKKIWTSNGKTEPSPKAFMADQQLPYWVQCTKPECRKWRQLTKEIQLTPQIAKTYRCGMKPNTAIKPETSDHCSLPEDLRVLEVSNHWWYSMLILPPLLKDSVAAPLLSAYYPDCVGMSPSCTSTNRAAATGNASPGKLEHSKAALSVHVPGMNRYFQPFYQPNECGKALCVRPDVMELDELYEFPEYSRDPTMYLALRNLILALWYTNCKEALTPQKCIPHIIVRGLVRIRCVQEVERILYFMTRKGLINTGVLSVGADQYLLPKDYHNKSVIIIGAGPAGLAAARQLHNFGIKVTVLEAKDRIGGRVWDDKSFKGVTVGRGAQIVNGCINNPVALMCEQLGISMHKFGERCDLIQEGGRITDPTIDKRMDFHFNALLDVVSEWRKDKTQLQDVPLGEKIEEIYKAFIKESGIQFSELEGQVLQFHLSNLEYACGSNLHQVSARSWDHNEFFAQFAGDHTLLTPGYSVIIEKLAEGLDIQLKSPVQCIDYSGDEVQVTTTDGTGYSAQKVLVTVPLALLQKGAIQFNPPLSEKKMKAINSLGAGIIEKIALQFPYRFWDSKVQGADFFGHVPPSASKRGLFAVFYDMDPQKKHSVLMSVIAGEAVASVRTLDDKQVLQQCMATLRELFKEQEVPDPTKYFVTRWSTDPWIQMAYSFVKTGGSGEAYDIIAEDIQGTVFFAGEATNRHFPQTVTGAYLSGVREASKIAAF
Excerpt: (§3) These were utilized in both in vitro and in vivo assays. Iscove’s Modified Dulbecco’s Medium (IMDM), Roswell Park Memorial Institute (RPMI)-1640 medium, fetal bovine serum (FBS) and penicillin/streptomycin were purchased from Gibco (Grand Island, New Nork, United States). Recombinant human LSD1 (172–852 aa) and full-length LSD2 were obtained from Sino Biological Inc. and ActiveMotif.
(§4) The inhibitory effects of the tested compounds on LSD1 and LSD2 enzymes were methodically assessed using the Lance Ultra LSD1 Histone H3-Lysine 4 Demethylase Assay Kit from PerkinElmer, adhering to previously published methodologies ([Li et al., 2022]). In brief, the reaction was initiated by adding 4 μL of enzyme solution, with concentrations specified at 2 nM for LSD1 or 172 nM for LSD2, 4 μL of substrate solution [2.5 μM Bio-H3K4me2 ([…])], and 2 μL of tested compound to a Tris buffer (50 mM Tris-HCl, 50 mM NaCl, 0.01% Tween 20, 1 mM DTT, 10 μM FAD, 10% glycerol, pH 9.0) at room temperature and incubated for 1 h. Following the incubation, 5 μL of a detection mixture, comprising an Eu-labeled H3K4me0 antibody and ULight Streptavidin, was added to the reaction. The fluorescence intensity was then measured employing TR-FRET mode with excitation and emission wavelengths set at 320 nm and 665 nm, respectively, utilizing the Envision (PerkinElmer) system. Each experiment was performed in triplicate.

[4] = target: T2, LSD1 (Homo sapiens, UniProt O60341); assay: Lance Ultra LSD1 demethylase TR-FRET enzyme inhibition assay; type: biochemical; conditions: for LSD2/LSD1 selectivity (folds): ratio of LSD2 IC50 to LSD1 IC50; for IC50: recombinant human LSD1 (172–852 aa) 2 nM, Bio-H3K4me2 substrate, 1 h, TR-FRET, mean ± SD, n = 3
T2 construct: Recombinant human LSD1 (172–852 aa); by word order LSD1 from Sino Biological
Excerpt: as §3, §4

IC50 [1] [µM]	IC50 [2] [µM]	IC50 [3] [nM]	LSD2/LSD1 selectivity (folds) [4] [folds]	IC50 [4] [nM]	SMILES
> 100	0.63 ± 0.05	861 ± 26.7	97	8.92 ± 0.57	C=CCc1cccc(S(=O)(=O)N2CCc3cc(C4CC4NCC4CCNCC4)ccc32)c1 (stereo not drawn) [LTM-4]
> 100	0.51 ± 0.03	674 ± 21.5	92	7.31 ± 0.46	O=S(=O)(c1cccc(CC2CC2)c1)N1CCc2cc(C3CC3NCC3CCNCC3)ccc21 (stereo not drawn) [LTM-5]
> 100	0.98 ± 0.07	> 5000	>302	16.5 ± 2.39	O=S(=O)(c1cccc(CC2CCCCC2)c1)N1CCc2cc(C3CC3NCC3CCNCC3)ccc21 (stereo not drawn) [LTM-6]

The remaining lines, values behind:

SMILES	IC50 [1] [µM]	IC50 [2] [µM]	IC50 [3] [nM]	LSD2/LSD1 selectivity (folds) [4] [folds]	IC50 [4] [nM]
O=C(O)c1ccc(CN2CCC(CN[C@@H]3C[C@H]3c3ccccc3)CC2)cc1 [GSK2879552, reference compound]	21.3 ± 2.69	1.17 ± 0.28	104 ± 5.75	4	24.5 ± 2.26
O=S(=O)(c1cccc(-c2ccccc2)c1)N1CCc2cc(C3CC3NCC3CCNCC3)ccc21 (stereo not drawn) [LTM-2]	> 100	0.74 ± 0.06	2200	215	10.2 ± 2.71
O=S(=O)(c1ccc(CO)c(Cl)c1)N1CCc2cc(C3CC3NCC3CCNCC3)ccc21 (stereo not drawn) [LTM-3]	> 100	0.32 ± 0.04	3050	668	4.57 ± 0.32
